The assay concerns the target canine TRPM8 (Canis lupus familiaris, UniProt Q1A7N1). Put plainly: In Vitro Canine TRPM8 Functional Assay (Ca2+ fluorescence, icilin activation). The assay is classed as cell-based. The conditions noted are these: for IC50: HEK293 cells stably expressing canine TRPM8, icilin activation, eight-point dose-response, read-out: IC50; for inhibition at 0.5 µM: compound at 0.5 μM, read-out: % Inh @ 0.5; for inhibition at 0.5 µM / inhibition at 0.2 µM: canine TRPM8, icilin activation; for inhibition at 0.2 µM: compound at 0.2 μM, read-out: % Inh @ 0.2. In short, it runs like this:
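Cells (HEK293, stable canine TRPM8) are seeded 24 h before assay. They are then dye-loaded with Calcium 3 at 37 °C followed by room temperature. Compound is added and monitored for 5 min, after which icilin (~80% maximal response) is added.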

Structures are written as SMILES.

The term IC50 denotes the concentration that gives 50% inhibition.

canine TRPM8, sequence (Q1A7N1 1-1104): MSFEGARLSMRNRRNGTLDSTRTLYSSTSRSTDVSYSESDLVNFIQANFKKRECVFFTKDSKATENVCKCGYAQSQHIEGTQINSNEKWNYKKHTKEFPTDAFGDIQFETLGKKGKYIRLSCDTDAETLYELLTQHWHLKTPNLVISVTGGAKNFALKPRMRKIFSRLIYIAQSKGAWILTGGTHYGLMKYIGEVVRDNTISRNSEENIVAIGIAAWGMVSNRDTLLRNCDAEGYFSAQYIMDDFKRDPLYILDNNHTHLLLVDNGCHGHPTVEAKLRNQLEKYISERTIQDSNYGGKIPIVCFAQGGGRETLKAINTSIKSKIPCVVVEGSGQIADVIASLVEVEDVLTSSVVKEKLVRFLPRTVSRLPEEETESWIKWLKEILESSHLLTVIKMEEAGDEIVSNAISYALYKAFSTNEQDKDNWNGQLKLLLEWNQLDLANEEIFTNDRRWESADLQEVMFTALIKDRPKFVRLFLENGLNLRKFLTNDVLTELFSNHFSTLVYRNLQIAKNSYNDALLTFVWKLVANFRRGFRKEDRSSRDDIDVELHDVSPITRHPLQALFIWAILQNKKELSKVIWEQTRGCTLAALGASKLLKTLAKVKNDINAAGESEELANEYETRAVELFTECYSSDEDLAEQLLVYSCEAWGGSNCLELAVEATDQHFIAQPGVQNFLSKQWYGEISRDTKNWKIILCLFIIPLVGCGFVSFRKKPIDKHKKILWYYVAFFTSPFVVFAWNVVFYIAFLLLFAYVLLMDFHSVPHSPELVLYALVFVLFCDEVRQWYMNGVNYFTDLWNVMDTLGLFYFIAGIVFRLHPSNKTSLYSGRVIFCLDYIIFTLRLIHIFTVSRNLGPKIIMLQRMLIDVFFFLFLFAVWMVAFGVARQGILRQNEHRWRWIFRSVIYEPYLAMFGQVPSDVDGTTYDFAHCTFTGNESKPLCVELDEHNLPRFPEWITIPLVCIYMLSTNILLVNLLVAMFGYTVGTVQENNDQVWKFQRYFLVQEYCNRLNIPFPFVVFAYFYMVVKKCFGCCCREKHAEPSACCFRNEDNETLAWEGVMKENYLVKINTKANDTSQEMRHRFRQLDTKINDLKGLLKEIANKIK

Regarding `Cc1c(N(Cc2ccc(F)c(F)c2)S(=O)(=O)c2ccccc2F)sc2ccccc12` [Compound 128, N-(3,4-Difluoro-benzyl)-N-(3-methyl-benzo[b]thiophen-2-yl)-2-fluoro-benzenesulfonamide], the IC50 stood at 9 nM and the inhibition at 0.5 µM worked out at 99%.

`Cc1c(N(Cc2ccc(F)c(F)c2)S(=O)(=O)c2cccs2)sc2ccccc12` [Compound 129, N-(3,4-Difluoro-benzyl)-N-(3-methyl-benzo[b]thiophen-2-yl)-thiene-2-ylsulfonamide]: the IC50 stood at 2.8 nM and the inhibition at 0.5 µM worked out at 101%. As for `Cn1cnc(S(=O)(=O)N(Cc2ccc(F)c(F)c2)c2cc3ccccc3s2)c1` [Compound 130, N-(Benzo[b]thiophen-2-yl)-N-(3,4-difluoro-benzyl)-1-methyl-1H-imidazole-4-sulfonamide], the IC50 came to 104 nM and the inhibition at 0.5 µM is 98%. The matching figures for `O=S(=O)(c1cccc(F)c1)N(Cc1ccc(F)c(F)c1)c1cc2ccccc2s1` [Compound 131, N-(Benzo[b]thiophen-2-yl)-N-(3,4-difluoro-benzyl)-3-fluoro-benzenesulfonamide]: 48 nM and 95%. In the case of `O=S(=O)(c1ccc(C(F)(F)F)cc1)N(Cc1ccc(F)c(F)c1)c1cc2ccccc2s1` [Compound 132, N-(Benzo[b]thiophen-2-yl)-N-(3,4-difluoro-benzyl)-4-trifluoromethyl-benzenesulfonamide], the inhibition at 0.5 µM turned out to be 56%. Consider `CS(=O)(=O)CS(=O)(=O)N(Cc1ccc(F)c(F)c1)c1cc2ccccc2s1` [Compound 133, N-(Benzo[b]thiophen-2-yl)-N-(3,4-difluoro-benzyl)-C-methanesulfonyl-methanesulfonamide], for which the half-maximal inhibitory concentration (IC50) turned out to be 60 nM and the inhibition at 0.5 µM was determined as 97%. As for `COc1ccc(S(=O)(=O)N(Cc2ccc(F)c(C(F)(F)F)c2)c2cc3ccccc3s2)cc1` [Compound 134, N-(Benzo[b]thiophen-2-yl)-N-(4-fluoro-3-trifluoromethyl-benzyl)-4-methoxy-benzenesulfonamide], the inhibition at 0.2 µM was found to be 30%. The same measure, in the same setting: under `COC(=O)c1ccc(S(=O)(=O)N(Cc2ccc(F)c(C(F)(F)F)c2)c2cc3ccccc3s2)cc1` [Compound 135, N-(Benzo[b]thiophen-2-yl)-N-(4-fluoro-3-trifluoromethyl-benzyl)-4-carbomethoxy-benzenesulfonamide] stands 18%; under `COC(=O)c1cccc(S(=O)(=O)N(Cc2ccc(F)c(C(F)(F)F)c2)c2cc3ccccc3s2)c1` [Compound 136, N-(Benzo[b]thiophen-2-yl)-N-(4-fluoro-3-trifluoromethyl-benzyl)-3-carbomethoxy-benzenesulfonamide], 40%. Take `COC(=O)c1cccc(S(=O)(=O)N(Cc2ccc(F)c(C(F)(F)F)c2)c2sc3ccccc3c2C)c1` [Compound 137, N-(3-Methyl-benzo[b]thiophen-2-yl)-N-(4-fluoro-3-trifluoromethyl-benzyl)-3-carbomethoxy-benzenesulfonamide]: the IC50 amounted to 8 nM and the inhibition at 0.2 µM was found to be 98%. Taken in the same sequence, the figures for `COC(=O)c1ccc(S(=O)(=O)N(Cc2ccc(F)c(C(F)(F)F)c2)c2sc3ccccc3c2C)cc1` [Compound 138, N-(3-Methyl-benzo[b]thiophen-2-yl)-N-(4-fluoro-3-trifluoromethyl-benzyl)-4-carbomethoxy-benzenesulfonamide] were 13 nM and 83%. Taken in the same sequence, the figures for `COC(=O)c1ccccc1S(=O)(=O)N(Cc1ccc(F)c(C(F)(F)F)c1)c1cc2ccccc2s1` [Compound 139, N-(Benzo[b]thiophen-2-yl)-N-(4-fluoro-3-trifluoromethyl-benzyl)-2-carbomethoxy-benzenesulfonamide] were 62 nM and 91%. For the compound `O=S(=O)(c1ccccc1)N(Cc1ccc(F)cc1)c1sc2ccccc2c1Br` [Compound 140, N-(3-Bromo-benzo[b]thiophen-2-yl)-N-(4-fluoro-benzyl)-benzenesulfonamide], the IC50 was found to be 2 nM and the inhibition at 0.5 µM amounted to 98%.

The values are drawn from patent US9434711B2 (Janssen Pharmaceutica, NV, priority 2007, dated 2016).
